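GI50: concentration for 50% inhibition of growth. At the TGI there is no net growth.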
How the values were obtained:
Assay in all cases: NCI tumour cell line growth inhibition, 384-well format
MDA-MB-468 breast = test system: MDA-MB-468 breast
SK-MEL-28 melanoma = test system: SK-MEL-28 melanoma
SR leukemia = test system: SR leukemia
HOP-62 NSCLC = test system: HOP-62 NSCLC
KM12 colon = test system: KM12 colon
SW-620 colon = test system: SW-620 colon
RPMI-8226 leukemia = test system: RPMI-8226 leukemia
HL-60(TB) leukemia = test system: HL-60(TB) leukemia
HS 578T breast = test system: HS 578T breast
SK-MEL-2 melanoma = test system: SK-MEL-2 melanoma
MOLT-4 leukemia = test system: MOLT-4 leukemia
SK-MEL-5 melanoma = test system: SK-MEL-5 melanoma
SK-OV-3 ovarian = test system: SK-OV-3 ovarian
OVCAR-3 ovarian = test system: OVCAR-3 ovarian
HOP-92 NSCLC = test system: HOP-92 NSCLC
RXF 393 renal = test system: RXF 393 renal
TK-10 renal = test system: TK-10 renal
SF-539 CNS = test system: SF-539 CNS
BT-549 breast = test system: BT-549 breast
MDA-MB-435 melanoma = test system: MDA-MB-435 melanoma
HCT-15 colon = test system: HCT-15 colon
A498 renal = test system: A498 renal
NCI-H226 lung = test system: NCI-H226 lung
PC-3 prostate = test system: PC-3 prostate
HCT-116 colon = test system: HCT-116 colon
MCF7 breast = test system: MCF7 breast
OVCAR-5 ovarian = test system: OVCAR-5 ovarian
CAKI-1 renal = test system: CAKI-1 renal
EKVX NSCLC = test system: EKVX NSCLC
IGROV1 ovarian = test system: IGROV1 ovarian
NCI-H322M lung = test system: NCI-H322M lung
T-47D breast = test system: T-47D breast
MALME-3M melanoma = test system: MALME-3M melanoma
SNB-75 CNS = test system: SNB-75 CNS
786-0 renal = test system: 786-0 renal
HT29 colon = test system: HT29 colon
A549 NSCLC = test system: A549 NSCLC
DU-145 prostate = test system: DU-145 prostate
NCI-H522 lung = test system: NCI-H522 lung
UACC-62 melanoma = test system: UACC-62 melanoma
NCI-H460 NSCLC = test system: NCI-H460 NSCLC
LOX IMVI melanoma = test system: LOX IMVI melanoma
SF-295 CNS = test system: SF-295 CNS
OVCAR-4 ovarian = test system: OVCAR-4 ovarian

Work on `Cc1nc2c(-c3cnc(N)nc3)nc(N3CCOCC3)nc2n1C(C)C` yielded a GI50 (MDA-MB-468 breast) of 65.9 nM, a TGI (MDA-MB-468 breast) of 351 nM and a GI50 (SK-MEL-28 melanoma) of 153 nM. For the same molecule, the TGI (SK-MEL-28 melanoma) was 969 nM, the GI50 (SR leukemia) was 195 nM and the TGI (SR leukemia) was 619 nM. The GI50 (HOP-62 NSCLC) was 158 nM, the TGI (HOP-62 NSCLC) was 13000 nM and the GI50 (KM12 colon) was 270 nM. The TGI (KM12 colon) was greater than 100000 nM, the GI50 (SW-620 colon) was 460 nM and the TGI (SW-620 colon) was greater than 100000 nM. For the same molecule, the GI50 (RPMI-8226 leukemia) was 59.6 nM, the TGI (RPMI-8226 leukemia) was 252 nM and the GI50 (HL-60(TB) leukemia) was 156 nM. The TGI (HL-60(TB) leukemia) was 1040 nM, the GI50 (HS 578T breast) was 66.1 nM and the TGI (HS 578T breast) was 273 nM. The GI50 (SK-MEL-2 melanoma) was 566 nM, the TGI (SK-MEL-2 melanoma) was 941 nM and the GI50 (MOLT-4 leukemia) was 61.8 nM. It also gave a TGI (MOLT-4 leukemia) of 344 nM, a GI50 (SK-MEL-5 melanoma) of 87.8 nM and a TGI (SK-MEL-5 melanoma) of 337 nM. For the same molecule, the GI50 (SK-OV-3 ovarian) was 92.7 nM, the TGI (SK-OV-3 ovarian) was 430 nM and the GI50 (OVCAR-3 ovarian) was 107 nM. For the same molecule, the TGI (OVCAR-3 ovarian) was 713 nM, the GI50 (HOP-92 NSCLC) was 67.5 nM and the TGI (HOP-92 NSCLC) was 435 nM. The GI50 (RXF 393 renal) was 78.9 nM, the TGI (RXF 393 renal) was 379 nM and the GI50 (TK-10 renal) was 54.9 nM. It also gave a TGI (TK-10 renal) of 465 nM, a GI50 (SF-539 CNS) of 167 nM and a TGI (SF-539 CNS) of 1120 nM. It also gave a GI50 (BT-549 breast) of 95.3 nM, a TGI (BT-549 breast) of 469 nM and a GI50 (MDA-MB-435 melanoma) of 184 nM. It also gave a TGI (MDA-MB-435 melanoma) of 845 nM, a GI50 (HCT-15 colon) of 76.1 nM and a TGI (HCT-15 colon) greater than 100000 nM. The GI50 (A498 renal) was 55.9 nM, the TGI (A498 renal) was 322 nM and the GI50 (NCI-H226 lung) was 122 nM. For the same molecule, the TGI (NCI-H226 lung) was 2390 nM, the GI50 (PC-3 prostate) was 52.8 nM and the TGI (PC-3 prostate) was greater than 100000 nM. The GI50 (HCT-116 colon) was 479 nM, the TGI (HCT-116 colon) was greater than 100000 nM and the GI50 (MCF7 breast) was 36 nM. The TGI (MCF7 breast) was greater than 100000 nM, the GI50 (OVCAR-5 ovarian) was 190 nM and the TGI (OVCAR-5 ovarian) was greater than 100000 nM. The GI50 (CAKI-1 renal) was 75.1 nM, the TGI (CAKI-1 renal) was 581 nM and the GI50 (EKVX NSCLC) was 86.6 nM. It also gave a TGI (EKVX NSCLC) of 380 nM, a GI50 (IGROV1 ovarian) of 21.8 nM and a TGI (IGROV1 ovarian) of 133 nM. The GI50 (NCI-H322M lung) was 125 nM, the TGI (NCI-H322M lung) was 50500 nM and the GI50 (T-47D breast) was 31.3 nM. The TGI (T-47D breast) was 166 nM, the GI50 (MALME-3M melanoma) was 44.3 nM and the TGI (MALME-3M melanoma) was 262 nM. The GI50 (SNB-75 CNS) was 35.5 nM, the TGI (SNB-75 CNS) was 220 nM and the GI50 (786-0 renal) was 246 nM. The TGI (786-0 renal) was 5940 nM, the GI50 (HT29 colon) was 191 nM and the TGI (HT29 colon) was greater than 100000 nM. For the same molecule, the GI50 (A549 NSCLC) was 108 nM, the TGI (A549 NSCLC) was 3600 nM and the GI50 (DU-145 prostate) was 149 nM. For the same molecule, the TGI (DU-145 prostate) was greater than 100000 nM, the GI50 (NCI-H522 lung) was 92.2 nM and the TGI (NCI-H522 lung) was 941 nM. For the same molecule, the GI50 (UACC-62 melanoma) was 147 nM, the TGI (UACC-62 melanoma) was 847 nM and the GI50 (NCI-H460 NSCLC) was 39 nM. For the same molecule, the TGI (NCI-H460 NSCLC) was greater than 100000 nM, the GI50 (LOX IMVI melanoma) was 232 nM and the TGI (LOX IMVI melanoma) was 860 nM. For the same molecule, the GI50 (SF-295 CNS) was 79.1 nM, the TGI (SF-295 CNS) was 431 nM and the GI50 (OVCAR-4 ovarian) was 118 nM. It also gave a TGI (OVCAR-4 ovarian) of 803 nM.
